From patent US20060069132A1, “Azolecarboxamide herbicides” (priority 2004, published 2006)
Where two headings read alike, the source gives them in different places.

Legend:
barnyardgrass = assay: Test A pre-/postemergence herbicide test; format: in vivo, Echinochloa crus-galli; conditions: for pest or weed control at 125 g/ha / pest or weed control at 500 g/ha: Echinochloa crus-galli, 240 h, read-out: Barnyardgrass plant response rating; for pest or weed control at 125 g/ha: 125 g ai/ha
Procedure, shortened: (§1)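 Visual injury rating on a 0–100 scale (0 no effect, 100 complete control) versus untreated controls, about ten days after treatment in greenhouse. Pre: directed soil spray onto seeded sandy loam. Post: spray to runoff on plants 2–10 cm tall at one- to two-leaf stage.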

morningglory = assay: Test A pre-/postemergence herbicide test; format: in vivo, Ipomoea spp.; conditions: for pest or weed control at 125 g/ha / pest or weed control at 500 g/ha: Ipomoea, 240 h, read-out: Morningglory plant response rating; for pest or weed control at 125 g/ha: 125 g ai/ha
Procedure, shortened: as §1

redroot pigweed = assay: Test A pre-/postemergence herbicide test; format: in vivo, Amaranthus retroflexus; conditions: for pest or weed control at 125 g/ha / pest or weed control at 500 g/ha: Amaranthus retroflexus, 240 h, read-out: Pigweed plant response rating; for pest or weed control at 125 g/ha: 125 g ai/ha
Procedure, shortened: as §1

rice = assay: Test C flooded paddy test; format: in vivo, Oryza sativa
Procedure, shortened: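 Plants were grown to the 1- to 4-leaf stage (2–18 cm) and then treated postemergence, or grown to the 2-leaf stage for the flooded paddy test. They were held in a greenhouse for 12 to 14 days and then scored by eye against controls, where 0 is no effect and 100 is complete control.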

[1] = test system: smallflower umbrella sedge; assay: Test C flooded paddy test; format: in vivo, Cyperus difformis
[2] = Postemergence, 500 g ai/ha, 0 to 100 scale, 0 no effect, 100 complete control
[3] = Postemergence, 2000 g ai/ha, 0 to 100 scale, 0 no effect, 100 complete control
[4] = Preemergence, 2000 g ai/ha, visual rating, 0 to 100 scale (0 no effect, 100 complete control)
[5] = preemergence, 500 g ai/ha, visual injury, 0 to 100 scale (0 no effect, 100 complete control)
[6] = 125 g ai/ha, scale 0 to 100 (0 no effect, 100 complete control)
[7] = 250 g ai/ha, scale of 0 to 100, 0 is no effect, 100 is complete control
[8] = 500 g ai/ha, visual rating after 12 to 14 days, scale 0 to 100 (0 no effect, 100 complete control)
[9] = Preemergence, 500 g ai/ha, visual rating, 0 to 100 scale (0 no effect, 100 complete control)
[10] = 62 g ai/ha, scale 0 to 100 (0 no effect, 100 complete control)
[11] = post-emergence, Postemergence, 0 to 100 scale, 0 no effect, 100 complete control
[12] = post-emergence, Postemergence, 500 g ai/ha, 0 to 100 scale, 0 no effect, 100 complete control
[13] = pre-emergence, preemergence, visual injury, 0 to 100 scale (0 no effect, 100 complete control)
[14] = pre-emergence, preemergence, 500 g ai/ha, visual injury, 0 to 100 scale (0 no effect, 100 complete control)

Row | SMILES | Barnyardgrass plant response rating (barnyardgrass; [2]) | Plant response rating, Barnyardgrass (barnyardgrass; [3]) | Barnyardgrass plant response rating (barnyardgrass; [4]) | Barnyardgrass plant response rating (barnyardgrass; [5]) | Morningglory plant response rating (morningglory; [2]) | Plant response rating, Morningglory (morningglory; [3]) | Morningglory plant response rating (morningglory; [4]) | Morningglory plant response rating (morningglory; [5]) | Pigweed plant response rating (redroot pigweed; [2]) | Plant response rating, Pigweed (redroot pigweed; [3]) | Pigweed plant response rating (redroot pigweed; [4]) | Pigweed plant response rating (redroot pigweed; [5]) | Rice plant response rating (rice; 62 g ai/ha, scale 0 to 100) | Rice plant response rating (rice; [6]) | Sedge, Umbrella plant response rating ([1]; 62 g ai/ha, scale 0 to 100) | Sedge, Umbrella plant response rating [1, 6] | Rice plant response rating (rice; [7]) | Plant response rating, Rice (rice; [8]) | Sedge, Umbrella plant response rating [1, 7] | Plant response rating, Sedge, Umbrella [1, 8] | other results
1 | CCOC(=O)c1cccc(NC(=O)c2cc(C(C)(C)C)nn2C)n1 [Compound 313] | 80 | 95 | 90 | 80 | 30 | 55 | 55 | 20 | 100 | 100 | 100 | 95 | 0 | 20 | 30 | 70 |  |  |  |  | Rice plant response rating (rice; 16 g ai/ha, scale 0 to 100): 0; Rice plant response rating (rice; 31 g ai/ha, scale 0 to 100): 0; Sedge, Umbrella plant response rating ([1]; 16 g ai/ha, scale 0 to 100): 0; Sedge, Umbrella plant response rating ([1]; 31 g ai/ha, scale 0 to 100): 0
2 | C=CCN(C)C(=O)c1cccc(NC(=O)c2cc(C(C)(C)C)nn2CC)c1 [Compound 285] | 55 | 80 | 90 | 70 | 40 | 50 | 45 | 25 | 80 | 100 | 100 | 100 | 25 | 40 | 25 | 35 | 45 | 65 | 50 | 65 | 
3 | CCn1nc(C(C)(C)C)c(F)c1C(=O)Nc1cc(C(=O)N(C)C)ccc1F [Compound 276, N-[5-[(dimethylamino)carbonyl]-2-fluorophenyl]-3-(1,1-dimethylethyl)-1-ethyl-4-fluoro-1H-pyrazole-5-carboxamide] |  |  |  |  |  |  |  |  |  |  |  |  |  |  |  |  |  |  |  |  | plant injury at 62 g/ha (rice; Oryza sativa, 62 g ai/ha, scale 0 to 100, read-out: Rice plant response rating): 0%; plant injury at 125 g/ha (rice; Oryza sativa, 125 g ai/ha, scale 0 to 100 (0 no effect, 100 complete control), read-out: Rice plant response rating): 15%; plant injury at 250 g/ha (rice; Oryza sativa, 250 g ai/ha, scale of 0 to 100, 0 is no effect, 100 is complete control, read-out: Rice plant response rating): 50%; plant injury at 500 g/ha (rice; Oryza sativa, 500 g ai/ha, visual rating after 12 to 14 days, scale 0 to 100 (0 no effect, 100 complete control), read-out: Plant response rating, Rice): 70%; pest or weed control at 62 g/ha ([1]; Cyperus difformis, 62 g ai/ha, scale 0 to 100, read-out: Sedge, Umbrella plant response rating): 45%; pest or weed control at 125 g/ha ([1]; Cyperus difformis, 125 g ai/ha, scale 0 to 100 (0 no effect, 100 complete control), read-out: Sedge, Umbrella plant response rating): 75%; pest or weed control at 250 g/ha ([1]; Cyperus difformis, 250 g ai/ha, scale of 0 to 100, 0 is no effect, 100 is complete control, read-out: Sedge, Umbrella plant response rating): 80%; pest or weed control at 500 g/ha ([1]; Cyperus difformis, 500 g ai/ha, visual rating after 12 to 14 days, scale 0 to 100 (0 no effect, 100 complete control), read-out: Plant response rating, Sedge, Umbrella): 85%
4 | CCNC(=O)c1ccc(F)c(NC(=O)c2c3c(nn2CC)C(C)(C)CC3)c1 [Compound 353] |  |  |  |  |  |  |  |  |  |  |  |  | 0 | 0 | 0 | 0 | 20 | 40 | 50 | 50 | 
5 | C=Cn1nc(C(C)(C)C)cc1C(=O)Nc1cccc(C(C)=O)c1 [Compound 127] | 30 | 50 | 30 |  | 10 | 20 | 30 |  | 40 | 50 | 50 | 40 |  | 25 |  | 80 | 25 | 25 | 80 | 85 | Barnyardgrass plant response rating (barnyardgrass; [9]): 20; Morningglory plant response rating (morningglory; [9]): 30; Rice plant response rating (rice; [10]): 20; Sedge, Umbrella plant response rating [1, 10]: 80
6 | CCNC(=O)c1cccc(NC(=O)c2nc(C(C)(C)C)nn2CC)c1 [Compound 446, 3-(1,1-dimethylethyl)-1-ethyl-N-[3-[(ethylamino)carbonyl]phenyl]-1H-1,2,4-triazole-5-carboxamide] |  |  |  |  |  |  |  |  |  |  |  |  |  |  |  |  |  |  |  |  | pest or weed control at 125 g/ha (barnyardgrass; [11]): 80%; pest or weed control at 500 g/ha (barnyardgrass; [12]): 90%; pest or weed control at 125 g/ha (barnyardgrass; [13]): 55%; pest or weed control at 500 g/ha (barnyardgrass; [14]): 85%; pest or weed control at 125 g/ha (morningglory; [11]): 10%; pest or weed control at 500 g/ha (morningglory; [12]): 40%; pest or weed control at 125 g/ha (morningglory; [13]): 10%; pest or weed control at 500 g/ha (morningglory; [14]): 15%; pest or weed control at 125 g/ha (redroot pigweed; [11]): 65%; pest or weed control at 500 g/ha (redroot pigweed; [12]): 80%; pest or weed control at 125 g/ha (redroot pigweed; [13]): 90%; pest or weed control at 500 g/ha (redroot pigweed; [14]): 100%
